For one assay, the system named is H22 mouse hepatoma cells. Put plainly: Co-culture killing of mouse hepatoma cells (Example 4). The settings on record: pure drug, 10 μg methotrexate to 5×10^6 H22 cells, 72 hours; FIG. 4B. In kind it is cell-based. As to the method:
(§1) the third group of H22 mouse hepatoma cells and the third group of the A2780 human ovarian carcinoma cells are left without any treatment.
(§2) 4) half of the micro-particles taken from the above test group, and half of the cell vesicles taken from the control group are respectively co-cultured with 5×10^4 tumor cells taken from the third group of tumor cells of different types for 72 hours within a 24-pore plate, the death of the tumor cells is observed, wherein the cell vesicles that are co-cultured with the tumor cells are the cell vesicles derived from the same type of tumor cells, and the micro-particles that are co-cultured with the tumor cells are the micro-particles formed after the cell vesicles derived from the same type of tumor cells have the chemotherapeutic drug wrapped therein;

Assay [1] concerns A2780 human ovarian carcinoma cells. Put plainly: Co-culture killing of human ovarian carcinoma cells (Example 4). In kind it is cell-based. To be noted: pure drug, 100 μg cisplatin to 5×10^6 A2780 cells, 72 hours; FIG. 4E. As to the method:
as §1, §2

From patent US9351931B2, “Pharmaceutical preparation for tumor chemotherapy and method for producing the same” (HUBEI SOUNDNY BIOTECHNOLOGY CO., LTD., priority 2012, dated 2016) come the findings set out here.

For the compound `CN(Cc1cnc2nc(N)nc(N)c2n1)c1ccc(C(=O)N[C@@H](CCC(=O)O)C(=O)O)cc1` [methotrexate], the “death of the tumor cells” value with H22 mouse hepatoma cells is on record as “there are still certain amount of tumor cells survived”.

As to `N.N.[Cl][Pt][Cl]` [cisplatin], in assay [1], the “death of the tumor cells” value is recorded as “there are still certain amount of tumor cells survived”.
